Measured values from patent US11331364B2, “Use for JNK inhibitor molecules for treatment of various diseases” (Xigen Inflammation Ltd., priority 2014, dated 2022).
pIC50: −log10 of the molar value. Square brackets hold non-standard residues; d marks the D form. Peptide text beside a SMILES is read from it.

Legend:
[1] = tested on: Imiquimod-induced psoriasis in mice; assay: Imiquimod-induced psoriasis, ear histopathology; type: in vivo, mouse
Description: Female BALB/cAnNCrl mice (Charles River, age 8 to 10 weeks at study start) have been assigned to the following groups (treatment schedule):
In this experiment, two positive controls have been utilized. Firstly, Prednisolone at 10 mg/kg (vehicle: 1% Hydroxyethylcellulose, 0.25% Polysorbate 80, and 0.05% Antifoam in purified water) has been dosed daily and orally (group “Prednisolone”). Secondly, Dexamethasone has been administered at 0.5 mg/kg (vehicle: sterile 0.9% NaCl) on days 1, 4 and 7 via intravenous route.
On day 8, animals have been sacrificed and the tissue (ear) has been fixed in 10% neutral buffered formalin. For histopathology hematoxylin-and-eosin-stained sections (cross cut) have been prepared and microscopic evaluation on the collected tissues from all animals has been performed. Methods and end-points for histopathology were similarly described in the van der Fits (2009) paper in that inflammation, epidermal hyperplasia, epidermal hyperkeratosis (rather than parakeratosis) were observed and recorded for severity grade, whereby the respective methodology from Van der Fits et al. (The Journal of Immunology 2009, 182, P. 5836-5845) is hereby incorporated by reference. Histopathology grading scores were excluded for either skin or ear in animals with secondary inflammatory processes (full thickness epidermal ulcers). Scores were averaged by group and standard deviation and statistical significance were calculated. […] Formalin-fixed, paraffin embedded skin from the dorsal surface of the mouse (BALB/c) was stained with hematoxylin and eosin (H&E) stain and assessed microscopically. An important difference from the above reference and to describe in more detail the observations of the present study: Hyperkeratosis can be defined specifically as orthokeratotic (no retained nuclei) or parakeratotic (retained nuclei). Either can occur normally in various anatomical locations and depending on species; however, both conditions are well defined in particular disease states. The van der Fits paper describes their Imiquimod (IMQ)-induced psoriasis model as causing parakeratotic hyperkeratosis similar to what is seen in the human condition, and that was a defined end-point for this study. However, the Danilenko et al. (Veterinary Pathology 2008 45:563) has shown that many rodent psoriasis models have orthokeratotic hyperkeratosis. […] The more general term ‘hyperkeratosis’ was used for grading end-points and describe in the text what type was seen (primarily orthokeratotic).
Microscopic Histopathology end-points were graded as such: […]

hJNK1 = target: T1, hJNK1 (Homo sapiens, UniProt P45983); assay: hJNK1 | IC50; conditions: read-out: hJNK1 | IC50
T1 construct: His; purchased Upstate 14-327

[2] = tested on: K5.STAT3C mouse model of psoriasis; assay: K5.STAT3C mouse model of psoriasis, tape stripping, acanthosis; type: in vivo; conditions: 5 mg/kg IP QD D0-D5
Description: To this end, two independent experiments are performed, each with at least 15 mice per experiment (5 mice per group). In each experiment, BK5.STAT3C heterozygous transgenic mice (Tg(KRT5-Stat3*A661C*N663C)1Jdg, henceforth referred to as K5.STAT3C mice) were randomly allocated to the following experimental groups 1 and 2, and wild-type littermates were allocated to group 3:
On Day 0, psoriasis is induced by tape striping (12-18 times) the back of the mouse after depilation. To this end, mice were anaesthetized using a Ketamine/Xylazine cocktail (100 mg/kg and 10 mg/kg respectively) intraperitoneally, shaved, depilated and skin injury was applied by 15 gentle strokes of tape stripping. Mice were treated with either vehicle (saline) or XG-104 right before anaesthesia on day 0 and once a day thereafter for 5 days. […]
Animals are weighed once on day 0. […] After termination of the study at day 5, approximately 1 cm^2 skin biopsy (lesions) is collected on the back of each mouse, embedded with Optimal Cutting Temperature (OCT)-containing moulds, frozen on dry ice, sectioned in 6 μm slices using a cryotome and stained with H&E. Epidermal thickness (acanthosis) is histologically measured blinded by two independent experimenters. One slide per mouse and 10 different zones of the sections are measured.

T1 sequence (P45983 whole entry, looked up): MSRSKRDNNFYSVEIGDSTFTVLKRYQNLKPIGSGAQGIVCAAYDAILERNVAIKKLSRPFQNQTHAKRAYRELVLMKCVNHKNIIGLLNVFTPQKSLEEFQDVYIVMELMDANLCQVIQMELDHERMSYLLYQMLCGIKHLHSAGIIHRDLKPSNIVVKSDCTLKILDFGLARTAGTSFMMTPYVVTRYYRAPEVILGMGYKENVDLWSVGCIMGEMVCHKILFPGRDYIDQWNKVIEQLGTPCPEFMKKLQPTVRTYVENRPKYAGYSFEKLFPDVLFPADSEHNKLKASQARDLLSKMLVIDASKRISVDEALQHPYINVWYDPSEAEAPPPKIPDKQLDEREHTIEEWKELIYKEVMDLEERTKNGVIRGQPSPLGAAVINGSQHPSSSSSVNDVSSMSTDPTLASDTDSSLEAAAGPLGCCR

`CC(C)C[C@H](NC(=O)[C@H](CC(N)=O)NC(=O)[C@H](CC(C)C)NC(=O)[C@@H](NC(=O)[C@@H](C)NC(=O)[C@@H]1CCCN1C(=O)[C@H](CCCNC(=N)N)NC(=O)[C@@H](CCCCN)NC(=O)[C@@H]1CCCN1C(=O)[C@H](CCCNC(=N)N)NC(=O)[C@@H](CCCNC(=N)N)NC(=O)[C@H](CCCNC(=N)N)NC(=O)[C@H](CCCNC(=N)N)NC(=O)[C@H](CCC(N)=O)NC(=O)[C@@H](CCCNC(=N)N)NC(=O)[C@H](CCCNC(=N)N)NC(=O)[C@H](CCCCN)NC(=O)[C@H](CCCCN)NC(=O)[C@H](N)CCCNC(=N)N)[C@@H](C)O)C(=O)N[C@H](Cc1ccccc1)C(N)=O` [SEQ ID NO: 172, rKKRrQRRrRPkRPaTLNLf] (H-[dR]KKR[dR]QRR[dR]RP[dK]RP[dA]TLNL[dF]-NH2; N-terminus assumed) was tested, and the “epidermal hyperkeratosis of the ear (average grades)” value ([1]; 0.02 mg/kg IV days 1, 4, 7) was “minimally decreased average grades”, the “epidermal hyperplasia of the ear” value ([1]; 0.2 mg/kg IV days 1, 4, 7) was “Minimal decreases in epidermal hyperplasia of the ear” and the “inflammation of the ear (average grade) vs vehicle-IMQ” value (from here on “inflammation … vs vehicle-IMQ”) ([1]; 0.2 mg/kg IV days 1, 4, 7) was “decreased inflammation of the ear”. For the same molecule, the “inflammation … vs vehicle-IMQ” value ([1]; 0.2 mg/kg IV days 1, 4, 7, listed as XG-104) was “significant differences from the vehicle control group”, the “inflammation … vs vehicle-IMQ” value ([1]; 2 mg/kg IV days 1, 4, 7) was “decreased inflammation of the ear” and the pIC50 (hJNK1) was 6.14. The “acanthosis (epidermal thickness)” value [2] was “significantly reduced the acanthosis” and the parakeratosis [2] was “absence of any parakeratosis”.
